Assay results as given in patent publication US20250136586A1, “Substituted 7-(Pyrimidin-4-yl)Quinolin-4(1H)-One Compounds as Cyclin Dependent Kinase Inhibitors” (BeiGene, Ltd., priority 2022, published 2025).

Tests used:
CDK4/Cyclin D1 = CDK4/Cyclin D1 (Homo sapiens (Human), UniProt P11802); experiment: TR-FRET kinase inhibition assay, CDK4/Cyclin D1; format: biochemical; conditions: 1 mM ATP, 0.15 μM Rb (Ser780)-biotin substrate, read-out: CDK4D1 IC50
Experimental: Compounds disclosed herein were tested for inhibition of CDK4/Cyclin D1 or CDK6/Cyclin D3 kinase in an assay based on the time-resolved fluorescence-resonance energy transfer (TR-FRET) methodology. […] The kinase was incubated with compound for 60 minutes at room temperature and the reaction was initiated by the addition of ATP and Rb (Ser780)-biotin substrate. After reaction at room temperature for 120 minutes, an equal volume of stop/detection solution was added according to the manufacture's instruction (Cisbio Bioassays). The stop/detection solution contained Streptavidin-XL665 and Anti-pRb (Ser780) mAb-Eu Cryptate in Detection buffer (Cisbio Bioassays). […] The inhibition percentage of CDK4/Cyclin D1 or CDK6/Cyclin D3 kinase activity in presence of increasing concentrations of compounds was calculated based on the ratio of fluorescence at 665 nm to that at 620 nm. The IC50 for each compound was derived from fitting the data to the four-parameter logistic equation by Dotmatics.

CDK6/Cyclin D3 = CDK6/Cyclin D3 (Homo sapiens (Human), UniProt Q00534); experiment: TR-FRET kinase inhibition assay, CDK6/Cyclin D3; format: biochemical; conditions: 1 mM ATP, 0.15 μM Rb (Ser780)-biotin substrate, read-out: CDK6D3 IC50
Chain of CDK6/Cyclin D3 (Q00534 whole entry): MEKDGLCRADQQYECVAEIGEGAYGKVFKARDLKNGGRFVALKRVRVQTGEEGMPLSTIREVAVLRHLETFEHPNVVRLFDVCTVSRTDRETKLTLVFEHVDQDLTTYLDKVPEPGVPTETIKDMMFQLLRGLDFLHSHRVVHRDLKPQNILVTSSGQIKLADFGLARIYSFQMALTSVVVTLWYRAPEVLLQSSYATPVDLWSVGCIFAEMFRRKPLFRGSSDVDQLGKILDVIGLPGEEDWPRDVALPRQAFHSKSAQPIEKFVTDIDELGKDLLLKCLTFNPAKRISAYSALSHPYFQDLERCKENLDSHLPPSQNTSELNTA
Chain of CDK6/Cyclin D3 (P30281 whole entry partner): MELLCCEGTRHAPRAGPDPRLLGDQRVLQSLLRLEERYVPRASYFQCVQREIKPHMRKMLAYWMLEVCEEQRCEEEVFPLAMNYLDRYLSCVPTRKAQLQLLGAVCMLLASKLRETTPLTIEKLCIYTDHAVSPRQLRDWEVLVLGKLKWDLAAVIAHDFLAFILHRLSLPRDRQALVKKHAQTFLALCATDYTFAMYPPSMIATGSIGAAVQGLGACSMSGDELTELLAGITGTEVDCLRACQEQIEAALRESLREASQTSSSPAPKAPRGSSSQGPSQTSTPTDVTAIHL
Experimental: Compounds disclosed herein were tested for inhibition of CDK4/Cyclin D1 or CDK6/Cyclin D3 kinase in an assay based on the time-resolved fluorescence-resonance energy transfer (TR-FRET) methodology. The assay was carried out in 384-well low volume black plates in a reaction mixture containing CDK4/Cyclin D1 or CDK6/Cyclin D3, 1 mM ATP, 0.15 μM Rb (Ser780)-biotin substrate and 0-10 μM compound in buffer containing 50 mM HEPES pH7.0, 0.02% NaN3, 0.01% BSA, 0.1 mM Orthovanadate, 50 mM MgCl2, 1 mM DTT and 0.005% Tween-20. The kinase was incubated with compound for 60 minutes at room temperature and the reaction was initiated by the addition of ATP and Rb (Ser780)-biotin substrate. After reaction at room temperature for 120 minutes, an equal volume of stop/detection solution was added according to the manufacture's instruction (Cisbio Bioassays). The stop/detection solution contained Streptavidin-XL665 and Anti-pRb (Ser780) mAb-Eu Cryptate in Detection buffer (Cisbio Bioassays). Plates were incubated at room temperature for 60 minutes, and the TR-FRET signals (ex337 nm, em665 nm/620 nm) were recorded on a PHERAstar FSX plate reader (BMG Labtech). The inhibition percentage of CDK4/Cyclin D1 or CDK6/Cyclin D3 kinase activity in presence of increasing concentrations of compounds was calculated based on the ratio of fluorescence at 665 nm to that at 620 nm. The IC50 for each compound was derived from fitting the data to the four-parameter logistic equation by Dotmatics.

Chain of CDK4/Cyclin D1 (P11802 whole entry): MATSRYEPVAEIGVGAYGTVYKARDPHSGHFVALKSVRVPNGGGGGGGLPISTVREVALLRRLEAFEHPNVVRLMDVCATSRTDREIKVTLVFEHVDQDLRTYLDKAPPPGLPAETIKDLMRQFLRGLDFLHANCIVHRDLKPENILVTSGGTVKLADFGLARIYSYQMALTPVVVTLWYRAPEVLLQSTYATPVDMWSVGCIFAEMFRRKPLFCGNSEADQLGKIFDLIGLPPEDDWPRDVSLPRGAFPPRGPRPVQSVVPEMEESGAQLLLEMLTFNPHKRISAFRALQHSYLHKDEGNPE
Chain of CDK4/Cyclin D1 (P24385 whole entry partner): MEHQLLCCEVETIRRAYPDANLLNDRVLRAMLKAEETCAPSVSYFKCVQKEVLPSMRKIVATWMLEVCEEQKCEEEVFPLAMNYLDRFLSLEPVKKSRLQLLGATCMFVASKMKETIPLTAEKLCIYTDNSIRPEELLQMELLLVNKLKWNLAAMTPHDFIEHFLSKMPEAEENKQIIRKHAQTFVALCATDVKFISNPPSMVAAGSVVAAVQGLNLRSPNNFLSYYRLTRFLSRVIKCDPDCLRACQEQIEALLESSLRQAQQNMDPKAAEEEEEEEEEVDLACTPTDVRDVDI

IC50 (CDK4/Cyclin D1) | IC50 (CDK6/Cyclin D3) | Compound
13 nM | 481 nM | CC(C)n1c(CN2C[C@@H](O)[C@@H](F)C2)cc(=O)c2ccc(-c3nc(N[C@@H]4CCOC[C@H]4O)ncc3F)cc21 [Example 31, 7-(5-fluoro-2-(((3S,4R)-3-hydroxytetrahydro-2H-pyran-4-yl)amino)pyrimidin-4-yl)-2-(((3S,4R)-3-fluoro-4-hydroxypyrrolidin-1-yl)methyl)-1-isopropylquinolin-4(1H)-one]
26 nM | 312 nM | COc1ccc(NCc2cc(=O)c3ccc(-c4nc(N[C@@H]5CCOC[C@H]5O)ncc4F)cc3n2C(C)C)cc1 [Example 101, 7-(5-fluoro-2-(((3S,4R)-3-hydroxytetrahydro-2H-pyran-4-yl)amino)pyrimidin-4-yl)-1-isopropyl-2-(((4-methoxyphenyl)amino)methyl)quinolin-4(1H)-one]
10 nM | 430 nM | CC(C)n1c(CN2C[C@@H]3C[C@H]2CO3)cc(=O)c2ccc(-c3nc(N[C@@H]4CCOC[C@H]4O)ncc3F)cc21 [Example 34, 2-(((1S,4S)-2-oxa-5-azabicyclo[2.2.1]heptan-5-yl)methyl)-7-(5-fluoro-2-(((3S,4R)-3-hydroxytetrahydro-2H-pyran-4-yl)amino)pyrimidin-4-yl)-1-isopropylquinolin-4(1H)-one]
40 nM | 1440 nM | Cc1cc(=O)c2ccc(-c3nc(N[C@@H]4CCOC[C@H]4O)ncc3F)cc2n1C1CCCC1 [Example 10, 1-cyclopentyl-7-(5-fluoro-2-(((3S,4R)-3-hydroxytetrahydro-2H-pyran-4-yl)amino)pyrimidin-4-yl)-2-methylquinolin-4(1H)-one]
10 nM | 450 nM | CC(C)n1c(C2CCCN2)cc(=O)c2ccc(-c3nc(N[C@@H]4CCOC[C@H]4O)ncc3F)cc21 (stereo partly drawn) [Example 388, 7-(5-fluoro-2-(((3S,4R)-3-hydroxytetrahydro-2H-pyran-4-yl)amino)pyrimidin-4-yl)-1-isopropyl-2-(pyrrolidin-2-yl)quinolin-4(1H)-one]
4.1 nM | 291 nM | CC(C)n1c(CN2CCC[C@]3(CCNC3=O)C2)cc(=O)c2ccc(-c3nc(N[C@@H]4CCOC[C@H]4O)ncc3F)cc21 [Example 105, (S)-7-((7-(5-fluoro-2-(((3S,4R)-3-hydroxytetrahydro-2H-pyran-4-yl)amino)pyrimidin-4-yl)-1-isopropyl-4-oxo-1,4-dihydroquinolin-2-yl)methyl)-2,7-diazaspiro[4.5]decan-1-one]
19 nM | 494 nM | CC(C)n1c(CN2CC[C@H](F)[C@@H](O)C2)cc(=O)c2ccc(-c3nc(N[C@@H]4CCOC[C@H]4O)ncc3F)cc21 [Example 85, 7-(5-fluoro-2-(((3S,4R)-3-hydroxytetrahydro-2H-pyran-4-yl)amino)pyrimidin-4-yl)-2-(((3S,4S)-4-fluoro-3-hydroxypiperidin-1-yl)methyl)-1-isopropylquinolin-4(1H)-one]
31 nM | 744 nM | CC(C)n1c(CN[C@@H]2CCOC2)cc(=O)c2ccc(-c3nc(N[C@@H]4CCOC[C@H]4O)ncc3F)cc21 [Example 65, 7-(5-fluoro-2-(((3S,4R)-3-hydroxytetrahydro-2H-pyran-4-yl)amino)pyrimidin-4-yl)-1-isopropyl-2-((((R)-tetrahydrofuran-3-yl)amino)methyl)quinolin-4(1H)-one]
13 nM | 260 nM | CC(C)n1c(CN2CCC(F)(F)CC2)cc(=O)c2ccc(-c3nc(N[C@@H]4CCOC[C@H]4O)ncc3F)cc21 [Example 54, 2-((4,4-difluoropiperidin-1-yl)methyl)-7-(5-fluoro-2-(((3S,4R)-3-hydroxytetrahydro-2H-pyran-4-yl)<amino)pyrimidin-4-yl)-1-isopropylquinolin-4(1H)-one]
12 nM | 375 nM | Cc1c(C2CCN2)n(C(C)C)c2cc(-c3nc(N[C@@H]4CCOC[C@H]4O)ncc3F)ccc2c1=O (stereo partly drawn) [Example 386, 2-(azetidin-2-yl)-7-(5-fluoro-2-(((3S,4R)-3-hydroxytetrahydro-2H-pyran-4-yl)amino)pyrimidin-4-yl)-1-isopropyl-3-methylquinolin-4(1H)-one]
1.6 nM | 220 nM | Cc1c(C2CCCN2)n(C(C)C)c2cc(-c3nc(N[C@@H]4CCOC[C@H]4O)ncc3F)ccc2c1=O (stereo partly drawn) [Example 389, 7-(5-fluoro-2-(((3S,4R)-3-hydroxytetrahydro-2H-pyran-4-yl)amino)pyrimidin-4-yl)-1-isopropyl-3-methyl-2-(pyrrolidin-2-yl)quinolin-4(1H)-one]
42 nM | 714 nM | CNC(=O)c1cc(=O)c2ccc(-c3nc(N[C@@H]4CCOC[C@H]4O)ncc3Cl)cc2n1C(C)C [Example 14, 7-(5-chloro-2-(((3S,4R)-3-hydroxytetrahydro-2H-pyran-4-yl)amino)pyrimidin-4-yl)-1-isopropyl-N-methyl-4-oxo-1,4-dihydroquinoline-2-carboxamide]
7.5 nM | 120 nM | CC(C)n1c(CO)cc(=O)c2ccc(-c3nc(N[C@@H]4CCOC[C@H]4O)ncc3F)cc21 [Example 17, 7-(5-fluoro-2-(((3S,4R)-3-hydroxytetrahydro-2H-pyran-4-yl)amino)pyrimidin-4-yl)-2-(hydroxymethyl)-1-isopropylquinolin-4(1H)-one]
54 nM | 648 nM | CC(C)n1c(CN2CCC[C@@]3(CCN(C)C3=O)C2)cc(=O)c2ccc(-c3nc(N[C@@H]4CCOC[C@H]4O)ncc3F)cc21 [Example 51, (R)-7-((7-(5-fluoro-2-(((3S,4R)-3-hydroxytetrahydro-2H-pyran-4-yl)amino)pyrimidin-4-yl)-1-isopropyl-4-oxo-1,4-dihydroquinolin-2-yl)methyl)-2-methyl-2,7-diazaspiro[4,5]decan-1-one]
22 nM | 682 nM | CC(C)n1c(CN2CCC(C#N)CC2)cc(=O)c2ccc(-c3nc(N[C@@H]4CCOC[C@H]4O)ncc3F)cc21 [Example 37, 1-((7-(5-fluoro-2-(((3S,4R)-3-hydroxytetrahydro-2H-pyran-4-yl)amino)pyrimidin-4-yl)-1-isopropyl-4-oxo-1,4-dihydroquinolin-2-yl)methyl)piperidine-4-carbonitrile]
3.4 nM | 78.2 nM | Cc1c(CN2CCOCC2)n(C(C)C)c2cc(-c3nc(N[C@@H]4CCOC[C@H]4O)ncc3F)ccc2c1=O [Example 58, 7-(5-fluoro-2-(((3S,4R)-3-hydroxytetrahydro-2H-pyran-4-yl)amino)pyrimidin-4-yl)-1-isopropyl-3-methyl-2-(morpholinomethyl)quinolin-4(1H)-one]
14 nM | 574 nM | CNC(=O)c1cc(=O)c2ccc(-c3nc(N[C@@H]4CCOC[C@H]4O)ncc3F)cc2n1C(C)C [Example 7, 7-(5-fluoro-2-(((3S,4R)-3-hydroxytetrahydro-2H-pyran-4-yl)amino)pyrimidin-4-yl)-1-isopropyl-N-methyl-4-oxo-1,4-dihydroquinoline-2-carboxamide]
15 nM | 510 nM | CC(C)n1c(CN(C)C)cc(=O)c2ccc(-c3nc(N[C@@H]4CCOC[C@H]4O)ncc3F)cc21 [Example 20, 2-((dimethylamino)methyl)-7-(5-fluoro-2-(((3S,4R)-3-hydroxytetrahydro-2H-pyran-4-yl)amino)pyrimidin-4-yl)-1-isopropylquinolin-4(1H)-one]
24 nM | 139 nM | CC(C)n1c(CN2CCC[C@@]3(CCNC3=O)C2)cc(=O)c2ccc(-c3nc(N[C@@H]4CCOC[C@H]4O)ncc3F)cc21 [Example 104, (R)-7-((7-(5-fluoro-2-(((3S,4R)-3-hydroxytetrahydro-2H-pyran-4-yl)amino)pyrimidin-4-yl)-1-isopropyl-4-oxo-1,4-dihydroquinolin-2-yl)methyl)-2,7-diazaspiro[4.5]decan-1-one]
11 nM | 165 nM | CC(C)n1c(CNc2ccccc2)cc(=O)c2ccc(-c3nc(N[C@@H]4CCOC[C@H]4O)ncc3F)cc21 [Example 94, 7-(5-fluoro-2-(((3S,4R)-3-hydroxytetrahydro-2H-pyran-4-yl)amino)pyrimidin-4-yl)-1-isopropyl-2-((phenylamino)methyl)quinolin-4(1H)-one]
